Reference: US9499543B2, “Polymorph forms” (RaQualia Pharma Inc., priority 2013, dated 2016)

Key:
[1] = Hygroscopicity study by dynamic vapor sorption (DVS) analysis; type: physicochemical; conditions: under 40%, 80%, and 90% relative humidity (RH) at 25 °C, comparing with compound prepared in EXAMPLE 2
Experimental: Hygroscopicity study by dynamic vapor sorption analysis (DVS)
Hygroscopicity study is performed using Surface Measurement Systems DVS-1. The sample is placed on a microbalance in the instrument and the weight change during the sorption/desorption cycle at 25° C. is monitored. One of the sorption/desorption programs consists of a sorption scan from 0 to 95% relative humidity (RH) and a desorption scan from 95 to 10% RH. The other consists of a sorption scan from 40 to 95% RH and desorption scan from 95 to 0% RH, followed by a second sorption scan from 0 to 40% RH. Both programs are carried out at 5% RH increments and the sample is allowed to equilibrate for 360 minutes or until equilibration had been attained at each step. At the end of the DVS experiment the sample is measured by PXRD.

[2] = Photostability / storage stability study; type: physicochemical
Experimental: Photostability samples are stored in open dishes with quartz glass covers and a second set of 25° C./60% RH, and 40° C./75% RH samples which are stored in open round amber glass bottles covered with gauze.

**Q.** What does the source list for `CN1N=C2CCN(C(=O)[C@@H](COCc3ccccc3)NC(=O)C(C)(C)N)C[C@@]2(Cc2ccccc2)C1=O.O=C(O)C(O)C(O)C(=O)O` [Polymorph Form I, 2-amino-N-[2-(3a-(R)-benzyl-2-methyl-3-oxo-2,3,3a,4,6,7-hexahydro-pyrazolo[4,3-c]pyridin-5-yl)-1-(R)-benzyloxymethyl-2-oxo-ethyl]-isobutyramide L-tartrate Polymorph Form I]?
**A.** moisture gain [1]: < 2%; loss in potency ([2]; any of the stability samples over 3 months): No significant loss; changes in the appearance, the X-ray diffraction patterns, and IR spectra ([2]; storage over 3 months, photostability, 25°C/60% RH and 40°C/75% RH samples): no significant changes
